“And” between values parts separate entries of the source, which are not always exact repeats. Equal values may be shown once. Read-outs that look alike come from different tables or passages of the source.
Assays:
HSP47 [1] = target: T1, HSP47 (Canis lupus familiaris, UniProt C7C419); settings: CMP coated 500 ng/well, HSP47 1:4 dilution series from 8 or 10 μM, anti-His-HRP/TMB read-out, four-parameter logistic fit, triplicates
Experimental: Purified collagen model peptides were coated onto a Nunc MaxiSorp (Thermo Fisher Scientific), 500 ng/well. Plates were washed after 1 h at RT with TBS-T 0.05% and free binding sites were blocked with 1% (w/v) BSA in TBS. […] Assays were either stopped with 10% H2SO4 and absorption measured at 450 nm or continuously monitored at 370 nm every 20 min for 1 h. In latter cases, timepoints showing the highest signal-to-noise ratio were used for analysis. […] Results were analyzed using Gen5 (BioTek) and Origin 2018.
The values shown for ELISA-style binding assays represent the average of triplicates. Data from affinity assays were analyzed using a four-parameter logistic fit function ([44]) in Origin 2018.

HSP47 [2] = target: T1, HSP47; settings: normalized to water at 20 °C
Experimental: All samples were incubated for 30 min at RT and afterward centrifuged at 42.000 rpm in a ProteomeLab XL-A analytical ultracentrifuge (Beckman Coulter) equipped with a fluorescence detection system (AU-FDS; Aviv Biomedical Inc). In this setup 42.000 rpm translates to 117.552g at the top (r = 59.5 mm) and 142.248g at the bottom (r = 72.0 mm) of the sample cell. Samples were spun in standard 12 mm double-sector epon-filled centerpieces, covered with quartz windows. All measurements were performed in triplicates and key findings repeated three times.
The resulting sedimentation velocity profiles were analyzed using DCDT+ version 2.4.3 software by John Philo ([40]). The buffer density (ρ) and buffer viscosity (η) of the buffer used for data analysis were calculated with [sequence]

HSP47 [3] = target: T1, HSP47; settings: gold-labeled HSP47 200 nM, foldon-CMP 100 nM (2:1); 30 fields of 1 μm2 counted
Experimental: Briefly, mixed protein solutions were adsorbed to 400 mesh carbon-coated copper grids and stained with 0.75% (w/v) uranyl formate. Specimens were examined in a Philips/FEICM 100 TWIN transmission electron microscope operated at 60 kV accelerating voltage. Images were recorded with a side-mounted Olympus Veleta camera with a resolution of 2048 × 2048 pixels (2k × 2K) and the ITEM acquisitions software.

[4] = read-out: KD determined by curve fittings, Fig. 1D
[5] = 1–5 μM HSP47 to 1 μM ATTO488-labeled CMP, 20 mM HEPES, 150 mM NaCl pH 7.5
[6] = higher molar ratios of HSP47 (up to 20 μM) to 1 μM ATTO488-labeled CMP

T1 sequence (C7C419 entry or part of it): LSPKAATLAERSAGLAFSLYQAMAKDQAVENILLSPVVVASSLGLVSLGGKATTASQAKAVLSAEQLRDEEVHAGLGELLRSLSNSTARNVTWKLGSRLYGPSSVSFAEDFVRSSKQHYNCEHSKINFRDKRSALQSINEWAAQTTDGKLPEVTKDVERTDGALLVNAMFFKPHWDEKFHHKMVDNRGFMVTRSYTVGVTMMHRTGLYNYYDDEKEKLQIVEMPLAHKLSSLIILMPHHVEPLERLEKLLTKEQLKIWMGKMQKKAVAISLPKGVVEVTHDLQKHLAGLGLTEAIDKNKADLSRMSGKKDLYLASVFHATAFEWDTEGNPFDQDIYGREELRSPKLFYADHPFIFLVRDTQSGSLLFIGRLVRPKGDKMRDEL

Row | Substance | Kd (HSP47 [1]; [4]) | sedimentation coefficient of the HSP47:CMP complex (HSP47 [2]; [5]) [S] | sedimentation coefficient of the HSP47:CMP complex (HSP47 [2]; [6]) | Stoichiometry, 0 Au / foldon (no HSP47 bound) (HSP47 [3]) [%] | Stoichiometry, 1 Au / foldon (one HSP47 bound) (HSP47 [3]) [%] | Kd (HSP47 [1]; Fig. 1C) [nM] | Stoichiometry, 2 Au / foldon (two HSP47 bound) (HSP47 [3]) [%]
1 | GPRGFP | 12 ± 1.4 nM | ~4 | stagnated | 54 | 45 | – | –
2 | GPRGPP | 21.7 nM and ~21 nM | ~4 | ~5 S | – | 29 | 36 ± 3 | 18
3 | GARGLP | 24.1 ± 5.4 nM | – | even higher sedimentation rates | 52 | 46 | – | –
